Results taken from US20230278958A1 (Merck Patent GmbH, priority 2020, published 2023).

How the values were obtained:
NCI-H226 cells = test: Viability assay in NCI-H226 (Yap-dependent) cells, CyQUANT; type: cell-based; settings: Homo sapiens, 96 hour incubation
SW620 Yap KO cells = test: Viability assay in SW620 Yap KO (Yap independent) cells, CyQUANT; type: cell-based; settings: Homo sapiens, SW-620, SW620 YAP/TAZ knock-out (YAP independent) cells, 96 hour incubation
Experimental: The ability of YAP-TEAD inhibitors to inhibit tumor cell growth was evaluated using two different cell lines: NCI-H226, which is a YAP dependent cell line, and SW620 cells, where YAP and TAZ were knocked out using CRISPR to generate a YAP independent cell line.
For the assay, cells were treated in duplicates with the test compounds in a 10-point dose, 1:3 dilution steps, with the top concentration starting at 30 μM (final concentration in assay). After a 96 hour incubation at 37° C., 95% rH, and 5% CO2, a cell-permeant DNA-binding dye that stains only healthy cells (CyQUANT®, Promega) was added to the cells, allowing the quantification of cell viability.
Cell Media: The NCI-H226 cells were cultured in the following media: RPMI 1640, +10% FBS, +1× GlutaMAX, +10 mM HEPES, +0.5% Pen/Strep. The SW620-KO cells were cultured in the following media: DMEM/F-12, +10% FBS, +1× GlutaMAX, +10 mM HEPES, +0.5% Pen/Strep.
Reagents: The reagents used are listed below:
Cell culture: The cells were examined using an inverted microscope to check for health, cell density, etc. To dissociate adherent cells, the monolayer of cells was washed once with pre-warmed PBS. After removing the PBS, 3 ml pre-warmed Accutase was added to a F75 flask, dispersed evenly and the flask was allowed to sit in incubator for ˜4-5 minutes.
When a single cell suspension was obtained, 7 ml of prewarmed growth media was added and resuspended with the cells. The cell suspension was transferred to a sterile 15 ml conical centrifuge tube, and spun for 5 min at 300×g, RT. The supernatant was discarded and the pellet was resuspended in 10 ml of pre-warmed growth media.
The total cell count was determined, and 20 μl of the desired cell number was added to each well of a 384 well plate using a Multidrop Combi. The plates were then incubated for 24 hours at 37° C., 95% rH, and 5% CO2.
Compound treatment: 24 hours after seeding, the cells were treated with compounds.
A 1:333 dilution of compounds, diluted in DMSO, was made to get a final concentration of 0.3% DMSO per well. To transfer the compounds to the assay plate, 120 nl was shot from Labcyte low dead volume plates to the cell plates containing 20 μl media/well with the ECHO 555 liquid handling system.
After treatment, the cells were fed with 20 μl fresh pre-warmed assay media using a Multidrop combi.
The assay plates were then incubated for 96 h at 37° C., 95% rH, and 5% CO2.
96h after treatment 30 μl of CyQuant® reagent was added to the assay plates using a Multidrop combi in the dark. The plates were then incubated for 1 hour at 37° C., 95% rH and 5% CO2. Thereafter, the assay plates were removed from the incubator and allowed to equilibrate to RT for 30 min in the dark without lid. Finally, they were measured using an EnVision microplate reader with a FITC bottom read program.
Experimental data in the Viability assay of the compounds shown in Table 1 are shown in Table 3 below and classified in the following groups: […]

YAP-TEAD interaction = test: SK-HEP-1 reporter assay (8x TEAD responsive elements driving NanoLuc luciferase); type: cell-based; settings: Homo sapiens, SK-HEP1; SK-HEP-1 TEAD-NanoLuc reporter cells, 24 hour incubation, luciferase readout
Summary of the method: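 SK-HEP-1 cells carrying stable 8× TEAD-element NanoLuc reporter, treated in duplicate with 10-point doses (top 30 μM final, 0.3% DMSO) for 24 h at 37 °C. Luciferase activity read by NanoGlo luminescence; IC50 values derived.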

Structure (SMILES) | IC50 (NCI-H226 cells) | IC50 (SW620 Yap KO cells) | IC50 (YAP-TEAD interaction) | melting point
CNC(=O)c1ccc2c(c1)c1cc(C(C)C)ccc1n2-c1ccc(C(F)(F)F)cc1 [Compound 28, N-methyl-6-(propan-2-yl)-9-[4-(trifluoromethyl)phenyl]-9H-carbazole-3-carboxamide] | 0.1 to 1 µM | 1 to 10 µM | 10 to 100 nM | 141 to 142 °C
CNC(=O)c1ccc2c(c1)c1nc(OC)ccc1n2-c1ccc(C(F)(F)F)cc1 [Compound 27, 2-methoxy-N-methyl-5-[4-(trifluoromethyl)phenyl]-5H-pyrido[3,2-b]indole-8-carboxamide] | 0.001 to 0.1 µM | > 10 µM | 10 to 100 nM | 180 to 182 °C
CNC(=O)c1ccc2c(c1)c1nc(C)ccc1n2-c1ccc(C(F)(F)F)cc1 [Compound 22, N,2-dimethyl-5-[4-(trifluoromethyl)phenyl]-5H-pyrido[3,2-b]indole-8-carboxamide] | 0.001 to 0.1 µM | > 10 µM | 10 to 100 nM | 134 to 136 °C
